Experimental data taken from US20110040088A1, “FUSED HETEROCYCLIC COMPOUNDS” (priority 2003, published 2011).
Where two headings read alike, the source gives them in different places.

Key:
5-HT2A receptor = 5-HT2A receptor (UniProt P28223); assay: 5-HT2A receptor radioligand binding ([3H]ketanserin); conditions: read-out: Ki 5-HT2A, table does not say whether rat cortex or human recombinant (NIH3T3) receptor;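 further: competitive displacement binding on membranes, either from rat cerebral cortex or from NIH3T3 cells stably expressing human 5-HT2A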
Procedure: The affinity of the compounds for the rat 5-HT2A receptor was evaluated by competitive radioligand binding assay using [^3H]ketanserine as the radioligand. The assay was performed on membranes from rat cortex as previously described (Schotte, A. et al., Psychopharmacology (1996) 124: 57-73). Briefly, brain tissue (rat cortex) was homogenized in 20 volumes per wet weight tissue of Tris-HCl buffer (50 mM, pH 7.4). The total membrane fraction was collected by centrifugation and washed by subsequent centrifugation runs (25 min at 25,000 g at 4° C.). Membranes were re-suspended in Tris-HCl buffer (50 mM, pH 7.4) containing 1 nM [^3H]ketanserin. Non-specific binding was estimated in the presence of 10 μM risperidone.

rat 5-HT7a receptor = biological target: T1, rat 5-HT7a receptor (Rattus norvegicus, UniProt P32305); assay: 5-HT7 receptor radioligand binding ([3H]5-CT, membranes of transfected HEK-293 cells); conditions: rat 5-HT7a in HEK-293 membranes, 1 nM [3H]5-CT
T1 construct: expressed in transfected cells
T1 sequence (P32305 whole entry): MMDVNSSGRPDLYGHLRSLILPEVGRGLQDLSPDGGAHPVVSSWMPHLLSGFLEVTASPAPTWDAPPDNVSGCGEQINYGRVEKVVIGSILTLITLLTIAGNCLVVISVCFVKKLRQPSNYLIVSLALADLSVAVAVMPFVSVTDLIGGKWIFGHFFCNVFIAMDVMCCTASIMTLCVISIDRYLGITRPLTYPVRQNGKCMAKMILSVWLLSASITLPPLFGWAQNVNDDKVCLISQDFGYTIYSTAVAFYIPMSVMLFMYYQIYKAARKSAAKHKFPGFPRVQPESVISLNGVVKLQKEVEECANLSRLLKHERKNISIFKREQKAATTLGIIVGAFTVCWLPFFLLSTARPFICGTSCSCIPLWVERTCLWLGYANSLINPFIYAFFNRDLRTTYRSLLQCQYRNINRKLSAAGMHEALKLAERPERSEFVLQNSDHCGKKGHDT

[1] = biological target: T2, human recombinant 5-HT2C receptor (Homo sapiens, UniProt P28335); assay: 5-HT2C receptor radioligand binding ([3H]mesulergine, CHO membranes);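 further: competitive displacement of the tritiated ligand, using membranes from CHO cells stably transfected with the human receptor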
T2 sequence (P28335 33-458): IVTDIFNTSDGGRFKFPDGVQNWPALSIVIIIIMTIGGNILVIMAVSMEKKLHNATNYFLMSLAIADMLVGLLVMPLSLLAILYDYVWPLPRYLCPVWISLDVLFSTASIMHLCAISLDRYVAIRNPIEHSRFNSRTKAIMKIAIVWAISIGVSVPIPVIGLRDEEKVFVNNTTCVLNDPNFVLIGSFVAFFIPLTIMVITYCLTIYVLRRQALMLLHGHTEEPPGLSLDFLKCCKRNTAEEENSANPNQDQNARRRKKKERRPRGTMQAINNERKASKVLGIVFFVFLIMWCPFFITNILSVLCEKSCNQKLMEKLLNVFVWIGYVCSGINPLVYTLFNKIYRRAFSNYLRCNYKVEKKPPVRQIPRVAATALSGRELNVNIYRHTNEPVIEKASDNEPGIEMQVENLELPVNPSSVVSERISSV
Procedure: (§1) Affinity for 5HT2 Receptor Binding Sites
(§2) Receptor binding was performed using the human recombinant 5-HT2A (GB: X57830), 5-HT2B (GB: Z36748) and 5-HT2c (GB: M81778) receptors. The affinity of the compounds for the 3 different human 5-HT2 receptor subtypes was evaluated by competitive radioligand binding assays using [^3H]ketanserin (h5-HT2A) or [^3H]mesulergine (h5-HT2B and h5-HT2c). The assays were performed on membranes prepared from NIH3T3 stably transfected with h5-HT2A or CHO stably transfected with h5-HT2B and h5-HT2C.

[2] = biological target: human recombinant 5-HT2B receptor (Homo sapiens, UniProt P41595); assay: 5-HT2B receptor radioligand binding ([3H]mesulergine, CHO membranes);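 further: competitive displacement binding on membranes of CHO cells stably expressing the receptor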
Sequence of human recombinant 5-HT2B receptor (P41595 whole entry): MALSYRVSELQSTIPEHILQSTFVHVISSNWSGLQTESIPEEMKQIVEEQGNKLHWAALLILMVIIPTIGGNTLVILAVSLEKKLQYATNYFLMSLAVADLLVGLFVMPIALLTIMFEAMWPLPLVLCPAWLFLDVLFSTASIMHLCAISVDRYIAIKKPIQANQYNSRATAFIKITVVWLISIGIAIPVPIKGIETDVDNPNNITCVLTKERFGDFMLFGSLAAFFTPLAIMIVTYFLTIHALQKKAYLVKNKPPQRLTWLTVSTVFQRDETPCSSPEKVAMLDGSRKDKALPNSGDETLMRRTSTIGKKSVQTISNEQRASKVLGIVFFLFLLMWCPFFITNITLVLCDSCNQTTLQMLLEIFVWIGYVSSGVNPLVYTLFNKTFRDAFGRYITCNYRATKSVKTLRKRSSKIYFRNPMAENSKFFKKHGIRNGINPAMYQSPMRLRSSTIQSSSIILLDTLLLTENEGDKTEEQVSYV
Procedure: as §1, §2

[3] = read-out: Ki 5-HT2C, h5-HT2C in CHO membranes, [3H]mesulergine
[4] = read-out: Ki 5-HT2B, h5-HT2B in CHO membranes, [3H]mesulergine

Row | Ki (5-HT2A receptor) | Ki (rat 5-HT7a receptor) | Ki [1] | Ki [2] | Ki [1, 3] | SMILES | Ki [2, 4]
1 | 0.0025 µM | 0.02 µM | 0.015 µM | 0.0009 µM | – | c1cc(-c2c3c(nn2C2CCCC2)CCNCC3)cs1 [Example 192, 2-Cyclopentyl-3-thiophen-3-yl-2,4,5,6,7,8-hexahydro-1,2,6-triaza-azulene] | –
2 | 0.025 µM | 0.02 µM | 0.066 µM | 0.0005 µM | – | c1cc(-c2c3c(nn2C2CCCC2)CCNCC3)co1 [Example 232, 2-Cyclopentyl-3-furan-3-yl-2,4,5,6,7,8-hexahydro-1,2,6-triaza-azulene] | –
3 | 0.003 µM | 0.09 µM | – | 0.0025 µM | 0.09 µM | c1ccc(-c2c3c(nn2C2CCC2)CCNCC3)cc1 [Example 276, 2-Cyclobutyl-3-phenyl-2,4,5,6,7,8-hexahydro-1,2,6-triaza-azulene] | –
4 | 0.0003 µM | 0.01 µM | 0.012 µM | 0.0008 µM | – | CCC(C)n1nc2c(c1-c1ccc(C)cc1)CCNCC2 (stereo not shown) [Example 300, 2-sec-Butyl-3-p-tolyl-2,4,5,6,7,8-hexahydro-1,2,6-triaza-azulene] | –
5 | 0.008 µM | 0.021 µM | – | 0.0013 µM | 0.045 µM | COc1ccc(-c2c3c(nn2C(C)C)CCNCC3)cc1 [Example 242, 2-Isopropyl-3-(4-methoxy-phenyl)-2,4,5,6,7,8-hexahydro-1,2,6-triaza-azulene] | –
6 | 0.002 µM | 0.007 µM | 0.02 µM | 0.00075 µM | – | CCc1ccc(-c2c3c(nn2C(C)C)CCNCC3)cc1 [Example 210, 3-(4-Ethyl-phenyl)-2-isopropyl-2,4,5,6,7,8-hexahydro-1,2,6-triaza-azulene] | –
7 | 0.001 µM | 0.04 µM | 0.013 µM | 0.0005 µM | – | Clc1ccc(-c2c3c(nn2C2CCC2)CCNCC3)cc1 [Example 238, 3-(4-Chloro-phenyl)-2-cyclobutyl-2,4,5,6,7,8-hexahydro-1,2,6-triaza-azulene] | –
8 | 0.0002 µM | 0.1 µM | 0.0215 µM | 0.0013 µM | – | CN1CCc2nn(C3CCCC3)c(-c3ccc(F)cc3)c2CC1 [Example 302, 2-Cyclopentyl-3-(4-fluoro-phenyl)-6-methyl-2,4,5,6,7,8-hexahydro-1,2,6-triaza-azulene] | –
9 | 0.001 µM | 0.025 µM | 0.01 µM | 0.00065 µM | – | Cc1ccc(-c2c3c(nn2C2CCCC2)CCNCC3)cc1 [Example 217, 2-Cyclopentyl-3-p-tolyl-2,4,5,6,7,8-hexahydro-1,2,6-triaza-azulene] | –
10 | 0.001 µM | 0.01 µM | 0.06 µM | 0.002 µM | – | Cc1ccc(-c2c3c(nn2C2CC2)CCNCC3)cc1 [Example 284, 2-Cyclopropyl-3-p-tolyl-2,4,5,6,7,8-hexahydro-1,2,6-triaza-azulene] | –
11 | 0.0001 µM | 0.035 µM | 0.01 µM | 0.0002 µM | – | Cc1ccc(-c2c3c(nn2C2CCC2)CCNCC3)cc1 [Example 278, 2-Cyclobutyl-3-p-tolyl-2,4,5,6,7,8-hexahydro-1,2,6-triaza-azulene] | –
12 | 0.0017 µM | 0.035 µM | 0.026 µM | 0.009 µM | – | CCC(C)n1nc2c(c1-c1ccc(F)cc1)CCNCC2 (stereo not shown) [Example 299, 2-sec-Butyl-3-(4-fluoro-phenyl)-2,4,5,6,7,8-hexahydro-1,2,6-triaza-azulene] | –
13 | 0.0009 µM | 0.15 µM | 0.04 µM | 0.003 µM | – | Fc1ccc(-c2c3c(nn2C2CCC2)CCNCC3)cc1 [Example 277, 2-Cyclobutyl-3-(4-fluoro-phenyl)-2,4,5,6,7,8-hexahydro-1,2,6-triaza-azulene] | –
14 | 0.0017 µM | 0.075 µM | 0.015 µM | 0.0018 µM | – | FC(F)(F)c1ccc(-c2c3c(nn2C2CCCC2)CCNCC3)cc1 [Example 218, 2-Cyclopentyl-3-(4-trifluoromethyl-phenyl)-2,4,5,6,7,8-hexahydro-1,2,6-triaza-azulene] | –
15 | 0.006 µM | 0.1 µM | – | – | 0.2 µM | Fc1ccc(-c2c3c(nn2C2CC2)CCNCC3)cc1 [Example 282, 2-Cyclopropyl-3-(4-fluoro-phenyl)-2,4,5,6,7,8-hexahydro-1,2,6-triaza-azulene] | 0.02 µM
16 | 0.01 µM | 0.016 µM | 0.051 µM | 0.022 µM | – | CC(C)n1nc2c(c1-c1ccc(F)cc1)CCNCC2 [Example 190, 3-(4-Fluoro-phenyl)-2-isopropyl-2,4,5,6,7,8-hexahydro-1,2,6-triaza-azulene] | –
17 | 0.0011 µM | 0.006 µM | – | 0.0014 µM | 0.012 µM | Cc1ccc(-c2c3c(nn2C(C)C)CCNCC3)cc1 [Example 209, 2-Isopropyl-3-p-tolyl-2,4,5,6,7,8-hexahydro-1,2,6-triaza-azulene] | –
18 | 0.009 µM | 0.31 µM | 0.038 µM | 0.0095 µM | – | Fc1cc(-c2c3c(nn2C2CCCC2)CCNCC3)ccc1Cl [Example 241, 3-(4-Chloro-3-fluoro-phenyl)-2-cyclopentyl-2,4,5,6,7,8-hexahydro-1,2,6-triaza-azulene] | –

The remaining lines, values behind:

Row | SMILES | Ki (5-HT2A receptor) | Ki (rat 5-HT7a receptor) | Ki [1] | Ki [2] | Ki [1, 3] | Ki [2, 4]
19 | CC1CN(Cc2ccccc2)CCc2c1nn(C(C)C)c2-c1ccc(F)cc1 (stereo not shown) [Example 305, 6-Benzyl-3-(4-fluoro-phenyl)-2-isopropyl-8-methyl-2,4,5,6,7,8-hexahydro-1,2,6-triaza-azulene] | 0.02 µM | 0.6 µM | 2.2 µM | 0.06 µM | – | –
20 | CCC(CC)n1nc2c(c1-c1cccc(F)c1)CCNCC2 [Example 183, 2-(1-Ethyl-propyl)-3-(3-fluoro-phenyl)-2,4,5,6,7,8-hexahydro-1,2,6-triaza-azulene] | 0.007 µM | 0.24 µM | 0.07 µM | 0.054 µM | – | –
21 | Cc1cccc(Cn2nc(-c3ccc(Cl)cc3)c3c2CCNCC3)c1 [Example 74, 3-(4-Chloro-phenyl)-1-(3-methyl-benzyl)-1,4,5,6,7,8-hexahydro-1,2,6-triaza-azulene] | 0.1 µM | 0.005 µM | 0.18 µM | 0.094 µM | – | –
22 | CC1Cc2c(nn(C3CCCC3)c2-c2ccc(F)cc2)CCN1 (stereo not shown) [Example 309, 2-Cyclopentyl-3-(4-fluoro-phenyl)-5-methyl-2,4,5,6,7,8-hexahydro-1,2,6-triaza-azulene] | 0.03 µM | 0.13 µM | 0.13 µM | 0.015 µM | – | –
23 | c1ccc(-c2c3c(nn2C2CCCC2)CCNCC3)cc1 [Example 180, 2-Cyclopentyl-3-phenyl-2,4,5,6,7,8-hexahydro-1,2,6-triaza-azulene] | 0.0015 µM | 0.01 µM | 0.012 µM | 0.0014 µM | – | –
24 | Fc1ccc(-c2nn(Cc3ccccc3)c3c2CCNCC3)cc1 [Example 47, 1-Benzyl-3-(4-fluoro-phenyl)-1,4,5,6,7,8-hexahydro-1,2,6-triaza-azulene] | 0.009 µM | 0.007 µM | 0.024 µM | 0.064 µM | – | –
25 | c1cc(-c2c3c(nn2C2CC2)CCNCC3)cs1 [Example 285, 2-Cyclopropyl-3-thiophen-3-yl-2,4,5,6,7,8-hexahydro-1,2,6-triaza-azulene] | 0.06 µM | 0.029 µM | 0.5 µM | 0.006 µM | – | –
26 | CN1CCc2c(-c3ccc(Cl)cc3)nn(Cc3ccccc3)c2CC1 [Example 165, 1-Benzyl-3-(4-chloro-phenyl)-6-methyl-1,4,5,6,7,8-hexahydro-1,2,6-triaza-azulene] | 0.1 µM | 0.004 µM | 0.18 µM | 0.31 µM | – | –
27 | c1ccc(Cn2nc3c(c2-c2ccccc2)CCNCC3)cc1 [Example 133, 2-Benzyl-3-phenyl-2,4,5,6,7,8-hexahydro-1,2,6-triaza-azulene] | 0.0023 µM | 0.125 µM | 0.01 µM | 0.0035 µM | – | –
28 | CC(C)n1nc2c(c1-c1ccc(C#N)cc1)CCNCC2 [Example 212, 4-(2-Isopropyl-2,4,5,6,7,8-hexahydro-1,2,6-triaza-azulen-3-yl)-benzonitrile] | 0.025 µM | 0.093 µM | 0.425 µM | – | – | 0.012 µM
29 | Clc1ccc(-c2nn(Cc3ccncc3)c3c2CCNCC3)cc1 [Example 316, 3-(4-Chloro-phenyl)-1-pyridin-4-ylmethyl-1,4,5,6,7,8-hexahydro-1,2,6-triaza-azulene] | 0.06 µM | 0.0091 µM | 5 µM | 0.53 µM | – | –
30 | CCC(CC)n1nc2c(c1-c1ccc(F)cc1)CCNCC2 [Example 184, 2-(1-Ethyl-propyl)-3-(4-fluoro-phenyl)-2,4,5,6,7,8-hexahydro-1,2,6-triaza-azulene] | 0.001 µM | 0.12 µM | 0.015 µM | 0.017 µM | – | –
31 | Cc1ccc(-c2c3c(nn2C(C)C)CC(C)NCC3)cc1 (stereo not shown) [Example 315, 2-Isopropyl-7-methyl-3-p-tolyl-2,4,5,6,7,8-hexahydro-1,2,6-triaza-azulene] | 0.009 µM | 0.012 µM | 0.3 µM | 0.003 µM | – | –
